Experimental data: patent US20250230193A1, “CYCLIC COMPOUND HAVING SELECTIVE KRAS INHIBITORY EFFECT ON HRAS AND NRAS” (CHUGAI SEIYAKU KABUSHIKI KAISHA, priority 2022, published 2025)
Where a SMILES comes first, the peptide text is derived from it. Bridges are numbered along the chain shown (N, C = ends). [ ]: non-standard residue; d: D form. The star is where a group is joined. hPhe(3,5-F2-4-CF3) = N[C@@H](CCc1cc(F)c(C(F)(F)F)c(F)c1)C(=O)O; hPhe(3-Cl-4-CF3) = N[C@@H](CCc1ccc(C(F)(F)F)c(Cl)c1)C(=O)O; NPrPhe(4-CF3) = CCCN[C@@H](Cc1ccc(C(F)(F)F)cc1)C(=O)O; NMeGly(cPent) = CN[C@H](C(=O)O)C1CCCC1; Nva(3-Et) = CCC(CC)[C@H](N)C(=O)O; Hyp = O=C(O)[C@@H]1C[C@@H](O)CN1; NMeD = CN[C@@H](CC(=O)O)C(=O)O; NMeL = CN[C@@H](CC(C)C)C(=O)O; Morpholide = C1CN(*)CCO1; Ac5c = NC1(C(=O)O)CCCC1; Sar = CNCC(=O)O

Assays:
[1] = biological target: GDP-bound HRAS wild-type protein (Homo sapiens, UniProt P01112); assay: Binding to HRAS by surface plasmon resonance (SPR), Single Cycle Kinetics
Sequence of GDP-bound HRAS wild-type protein (P01112 whole entry): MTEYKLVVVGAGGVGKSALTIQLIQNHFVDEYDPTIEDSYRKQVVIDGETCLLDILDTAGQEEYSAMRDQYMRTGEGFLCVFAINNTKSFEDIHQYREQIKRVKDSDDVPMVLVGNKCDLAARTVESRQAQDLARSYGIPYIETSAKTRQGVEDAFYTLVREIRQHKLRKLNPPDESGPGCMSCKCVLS

[2] = biological target: GDP-bound NRAS wild-type protein (Homo sapiens, UniProt P01111); assay: Binding to NRAS by surface plasmon resonance (SPR), Single Cycle Kinetics
Sequence of GDP-bound NRAS wild-type protein (P01111 whole entry): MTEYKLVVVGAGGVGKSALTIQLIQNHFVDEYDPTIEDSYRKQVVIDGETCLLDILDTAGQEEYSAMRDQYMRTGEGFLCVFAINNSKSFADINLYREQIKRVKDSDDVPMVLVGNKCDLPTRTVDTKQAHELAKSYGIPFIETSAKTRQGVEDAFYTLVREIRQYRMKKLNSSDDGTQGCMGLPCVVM

[3] = GDP-bound HRAS wild-type vs GDP-bound KRAS wild-type, SPR
[4] = GDP-bound NRAS wild-type vs GDP-bound KRAS wild-type, SPR

What does the source list for `CCO[C@H](C)[C@@H]1NC(=O)[C@H](CC(C)C)N(C)C(=O)C[C@@H](C(=O)N(C)CC)N(C)C(=O)[C@H](C2CCCC2)N(C)C(=O)C2(CC(C)(C)C2)NC(=O)[C@@H]2C[C@H](C)CN2C(=O)[C@H](CCc2ccc(C(F)(F)F)c(OC)c2)NC(=O)CN(C)C(=O)[C@H](Cc2ccc(C)cc2)N2CC/C=C\C[C@@H](C2=O)N(C)C(=O)CN(C)C1=O` [PP2413]?
HRAS/KRAS (ratio of KD value with respect to HRAS to KD value with respect to KRAS) ([1]; SPR, GDP-bound HRAS wild-type vs GDP-bound KRAS wild-type): A (a compound having 10 or more and less than 20 is denoted as A); NRAS/KRAS (ratio of KD value with respect to NRAS to KD value with respect to KRAS) ([2]; SPR, GDP-bound NRAS wild-type vs GDP-bound KRAS wild-type): A (a compound having 10 or more and less than 20 is denoted as A)

`CCO[C@@H]1C[C@H]2C(=O)NC3(CC(C)(C)C3)C(=O)N(C)[C@@H](C3CCCC3)C(=O)N(C)[C@H](C(=O)N(CC)CC)CC(=O)N(C)[C@@H](CC)C(=O)N[C@@H]([C@@H](C)CC)C(=O)N(C)CC(=O)N(C)[C@H]3C/C=C\CCN(C3=O)[C@@H](Cc3ccc(C)cc3)C(=O)N(C)CC(=O)N[C@@H](CCc3ccc(C(F)(F)F)c(Cl)c3)C(=O)N2C1` [PP1883] was tested. Which “HRAS/KRAS (ratio of KD value for HRAS to KD value for KRAS)” value [1, 3] did it give?
Its value is “A (a compound having 10 or more and less than 20 is denoted as A)”.

What about the “NRAS/KRAS (ratio of KD value for NRAS to KD value for KRAS)” value [2, 4] of the same compound?
Its value is “A (a compound having 10 or more and less than 20 is denoted as A)”.

Which “HRAS/KRAS (ratio of KD value with respect to GDP-bound HRAS wild-type protein to KD value with respect to KRAS)” value ([1]; SPR) does the source give for `CCCN1C(=O)CN(C)C(=O)CN(C)C(=O)[C@H](C(CC)CC)NC(=O)[C@H](CC(C)C)N(C)C(=O)C[C@@H](C(=O)N2CCOCC2)N(C)C(=O)[C@H](C2CCCC2)N(C)C(=O)C2(CCCC2)NC(=O)[C@@H]2CCCN2C(=O)[C@H](CCc2cc(F)c(C(F)(F)F)c(F)c2)NC(=O)CN(C)C(=O)[C@@H]1Cc1ccc(C(F)(F)F)cc1` [PP0768] ([NMeL][Nva(3-Et)][Sar][Sar][NPrPhe(4-CF3)][Sar][hPhe(3,5-F2-4-CF3)]P[Ac5c][NMeGly(cPent)][NMeD]-Morpholide; lactam N-11) here?
Its value is “C (A compound having a KD ratio of 0.1 or more and less than 3 is denoted as C)”.

And the “NRAS/KRAS (ratio of KD value with respect to GDP-bound NRAS wild-type protein to KD value with respect to KRAS)” value ([2]; SPR)?
The value was “B (a compound having 3 or more and less than 10 is denoted as B)”.

Which results are given for `CCCN1C(=O)CN(C)C(=O)CN(C)C(=O)[C@H]([C@@H](C)CC)NC(=O)[C@H](CC(C)C)N(C)C(=O)C[C@@H](C(=O)N2CCOCC2)N(C)C(=O)[C@H](C2CCCC2)N(C)C(=O)C2(CCCC2)NC(=O)[C@@H]2C[C@@H](OCC)CN2C(=O)[C@H](CCc2ccc(C(F)(F)F)c(Cl)c2)NC(=O)CN(C)C(=O)[C@@H]1Cc1ccc(C(F)(F)F)cc1` [PP0233] ([NMeL]I[Sar][Sar][NPrPhe(4-CF3)][Sar][hPhe(3-Cl-4-CF3)][Hyp](Et)[Ac5c][NMeGly(cPent)][NMeD]-Morpholide; lactam N-11)?
HRAS/KRAS (ratio of KD for GDP-bound HRAS wild-type to KD for KRAS) ([1]; SPR): C (A compound having a KD ratio of 0.1 or more and less than 3 is denoted as C); NRAS/KRAS (ratio of KD for GDP-bound NRAS wild-type to KD for KRAS) ([2]; SPR): B (a compound having 3 or more and less than 10 is denoted as B)

For `CCO[C@@H]1C[C@H]2C(=O)NC3(CCC3)C(=O)N(C)[C@@H](C3CCCC3)C(=O)N(C)[C@H](C(=O)N(C)CC)CC(=O)N(C)[C@@H](CC3CCC3)C(=O)N[C@@H]([C@@H](C)CC)C(=O)N(C)CC(=O)N(C)[C@H]3C/C=C\CCN(C3=O)[C@@H](Cc3ccc(C(F)(F)F)cc3)C(=O)N(C)CC(=O)N[C@@H](CCc3ccc(C(F)(F)F)c(OC)c3)C(=O)N2C1` [PP2825], which “HRAS/KRAS (ratio of KD value with respect to GDP-bound HRAS wild-type protein to KD value with respect to KRAS)” value ([1]; class symbols) is on record?
Its value is “B (a compound having 3 or more and less than 10 is denoted as B)”.

And the “NRAS/KRAS (ratio of KD value with respect to GDP-bound NRAS wild-type protein to KD value with respect to KRAS)” value ([2]; class symbols)?
The value was “A (a compound having 10 or more and less than 20 is denoted as A)”.

How did the “HRAS/KRAS (ratio of KD for GDP-bound HRAS wild-type to KD for KRAS)” value ([1]; SPR) turn out when `CCCN1C(=O)CN(C)C(=O)CN(C)C(=O)[C@H]([C@@H](C)CC)NC(=O)[C@H](CC(C)C)N(C)C(=O)C[C@@H](C(=O)N2CCOCC2)N(C)C(=O)[C@H](C2CCCC2)N(C)C(=O)[C@@H](C)NC(=O)[C@@H]2CCCN2C(=O)[C@H](CCc2ccc(C(F)(F)F)c(Cl)c2)NC(=O)CN(C)C(=O)[C@@H]1Cc1ccc(C(F)(F)F)cc1` [PP0150] ([NMeL]I[Sar][Sar][NPrPhe(4-CF3)][Sar][hPhe(3-Cl-4-CF3)]P[dA][NMeGly(cPent)][NMeD]-Morpholide; lactam N-11) was run?
The value was “C (A compound having a KD ratio of 0.1 or more and less than 3 is denoted as C)”.

What about the “NRAS/KRAS (ratio of KD for GDP-bound NRAS wild-type to KD for KRAS)” value ([2]; SPR) of the same compound?
The value was “B (a compound having 3 or more and less than 10 is denoted as B)”.

How did the “HRAS/KRAS (ratio of KD value for HRAS to KD value for KRAS)” value [1, 3] turn out when `CCC[C@H]1C(=O)N[C@@H]([C@@H](C)CC)C(=O)N(CCC)CC(=O)N(C)[C@H]2C/C=C\CCN(C2=O)[C@@H](Cc2ccc(C(F)(F)F)cc2)C(=O)N(C)CC(=O)N[C@@H](CCc2cc(F)c(C(F)(F)F)c(F)c2)C(=O)N2C[C@H](OCC)C[C@H]2C(=O)NC2(CCC2)C(=O)N(C)[C@@H](C2CCCC2)C(=O)N(C)[C@H](C(=O)N(C)C)CC(=O)N1C` [PP1767] was run?
The value was “B (a compound having 3 or more and less than 10 is denoted as B)”.

What about the “NRAS/KRAS (ratio of KD value for NRAS to KD value for KRAS)” value [2, 4] of the same compound?
The value was “A (a compound having 10 or more and less than 20 is denoted as A)”.
